According to US11332455B2, “α,β-unsaturated amide compound” (KYOWA KIRIN CO., LTD., priority 2015, dated 2022):

Columns and labels:
Assay in all cases: Cell growth inhibitory effect, cell counting kit 8, 6 days
Type in all cases: cell-based
[1] = system: HuH28, a human liver cancer cell line; settings: 144 h, HuH28 cells, 6 days incubation
Description: (§1) Cell growth inhibitory effect on human mesothelioma, human liver cancer, human ovarian cancer, and […]
(§2) NCI-H226 cells, a human mesothelioma cell line (ATCC, CRL-5826), NCI-H322 cells, a human lung cancer cell line (the European Collection of Authenticated Cell Cultures, 95111734), OVTOKO cells, a human ovarian cancer cell line (JCRB cell bank, JCRB1048) and HuH28, a human liver cancer cell line (JCRB cell bank, JCRB0426) were each subcultured by keeping the cell density under 80% in a RPMI1640 culture medium with 10% fetal bovine serum (FBS). NCI-H226 cells, NCI-H322 cells and SSP-25 cells were each suspended in the RPM11640 culture medium mentioned above, and plated to a 96-well flat-bottom plate at 500 cells/well in each well, and incubated at 37° C. in an incubator with 5% CO2 for one day. After the incubation, the evaluation of cell growth inhibitory activity was started. OVTOKO cells were suspended in the RPMI1640 culture medium mentioned above, and plated to a 96-well flat-bottom plate at 250 cells/well in each well, and incubated it at 37° C. in an incubator with 5% CO2 for one day. After the incubation, the evaluation of the cell growth inhibitory activity was started. The next day, a test compound was serially diluted to 5 times of its final concentration in the RPM11640 culture medium mentioned above, and the diluted solution was added to each well. In this case, the final concentration of DMSO in each well was adjusted to 0.1%. After the test compound was added, cells were incubated at 37° C. in an incubator with 5% CO2 for 6 days. At the addition of the test compound and 6 days after the addition, the cell counting measurement was performed using a cell counting kit 8 (made by DOJINDO) according to a protocol equivalent to DOJINDO's recommendation. A reagent contained in the kit was added to each plate and color reaction was performed for 2 or 3 hours at 37° C. in an incubator with 5% CO2. After the reaction, an absorbance at wavelength of 450 nm was measured using a microplate reader. A growth inhibition rate was calculated according to the following formula, from which the concentration of a test compound at which cell growth was inhibited by 50% (GI50 value) was determined.

[2] = system: NCI-H322 cells, a human lung cancer cell line; settings: 144 h, 6 days incubation
Description: as §1, §2

[3] = system: NCI-H226 cells, a human mesothelioma cell line; settings: 144 h, 6 days incubation
Description: as §1, §2

[4] = group 100 nmol/L to 1 μmol/L (upper bound given in μmol/L)

GI50 [1]	GI50 [2]	GI50 ([3]; group less than 100 nmol/L)	GI50 [3, 4]	SMILES
< 3000 nM	< 1000 nM	< 100 nM	–	C=CC(=O)Nc1ccc(Oc2ccc(Cl)cc2)c2nc(C)ccc12 [Compound 117, N-{8-(4-Chlorophenoxy)-2-methylquinolin-5-yl}acrylamide]
< 3000 nM	< 1000 nM	< 100 nM	–	C=CC(=O)Nc1ccc(Oc2ccccc2)c2nc(C)ccc12 [Compound 112, N-(2-Methyl-8-phenoxyquinolin-5-yl)acrylamide]
< 3000 nM	< 1000 nM	< 100 nM	–	C=CC(=O)NC1CCOc2c1ccc(Oc1ccc(C(F)(F)F)nc1)c2Cl (centres unmarked) [Compound 168, N-(8-Chloro-7-[{6-(trifluoromethyl)pyridin-3-yl}oxy]chroman-4-yl)acrylamide]
< 3000 nM	< 1000 nM	< 100 nM	–	C=CC(=O)Nc1cncc(Oc2ccc(C(F)(F)F)cc2)c1 [Compound 96, N-[5-{4-(Trifluoromethyl)phenoxy}pyridin-3-yl]acrylamide]
< 3000 nM	< 1000 nM	< 100 nM	–	C=CC(=O)Nc1ccc(Oc2cccc(Cl)c2)c2ncccc12 [Compound 114, N-{8-(3-Chlorophenoxy)quinolin-5-yl}acrylamide]
< 3000 nM	< 1000 nM	< 100 nM	–	C=CC(=O)NCc1cnc(Oc2ccc(Cl)cc2)c2ncccc12 [Compound 227, N-[{8-(4-Chlorophenoxy)-1,7-naphthyridin-5-yl}methyl]acrylamide]
< 3000 nM	< 1000 nM	< 100 nM	–	C=CC(=O)Nc1ccc(Oc2ccccc2)c2ncccc12 [Compound 111, N-(8-Phenoxyquinolin-5-yl)acrylamide]
< 3000 nM	< 1000 nM	< 100 nM	–	C=CC(=O)NC1CCOc2c1ccc(Oc1ccc(C(F)(F)F)nc1)c2Br (centres unmarked) [Compound 169, N-(8-Bromo-7-[{6-(trifluoromethyl)pyridin-3-yl}oxy]chroman-4-yl)acrylamide]
< 3000 nM	< 1000 nM	< 100 nM	–	C=CC(=O)Nc1cnc(Oc2ccc(Cl)cc2)c2ncccc12 [Compound 226, N-{8-(4-chlorophenoxy)-1,7-naphthyridin-5-yl}acrylamide]
< 3000 nM	< 1000 nM	< 100 nM	–	C=CC(=O)NCc1ccc(Oc2ccc(C(F)(F)F)cc2)c2ncc(C)cc12 [Compound 199, N-([3-Methyl-8-{4-(trifluoromethyl)phenoxy}quinolin-5-yl]methyl)acrylamide]
< 3000 nM	< 1000 nM	< 100 nM	–	C=CC(=O)NCc1ccc(Oc2ccc(Cl)cc2)c2ncccc12 [Compound 134, N-[{8-(4-Chlorophenoxy)quinolin-5-yl}methyl]acrylamide]
< 3000 nM	< 1000 nM	< 100 nM	–	C=CC(=O)NCc1cc(Oc2ccc(C(F)(F)F)nc2)nc2ccccc12 [Compound 149, N-{(2-[{6-(Trifluoromethyl)pyridin-3-yl}oxy]quinolin-4-yl)methyl}acrylamide]
< 3000 nM	< 1000 nM	–	100 to 1000 nM	C=CC(=O)NCc1ccc(C(=O)c2ccc(C(F)(F)F)cc2)c2ncccc12 [Compound 208, N-([8-{4-(Trifluoromethyl)benzoyl}quinolin-5-yl]methyl)acrylamide]
< 3000 nM	< 1000 nM	< 100 nM	–	C=CC(=O)NCc1ccc(Cc2ccc(C(F)(F)F)cc2)c2ncccc12 [Compound 211, N-([8-{4-(Trifluoromethyl)benzyl}quinolin-5-yl]methyl)acrylamide]
–	< 1000 nM	< 100 nM	–	C=CC(=O)NC1COc2cccc(Oc3ccc(C(F)(F)F)cc3)c2C1 (centres unmarked) [Compound 35, N-[5-{4-(Trifluoromethyl)phenoxy}chroman-3-yl]acrylamide]
< 3000 nM	< 1000 nM	< 100 nM	–	C=CC(=O)NCc1ncc(Oc2ccc(C(F)(F)F)cc2)c2ccccc12 [Compound 224, N-([4-{4-(Trifluorophenyl)phenoxy}isoquinolin-1-yl]methyl)acrylamide]

GI50 [1]	GI50 [2]	GI50 ([3]; group less than 100 nmol/L)	GI50 [3, 4]	SMILES
< 3000 nM	< 1000 nM	< 100 nM	–	C=CC(=O)NCc1ccc(Oc2ccc(C(F)(F)F)cc2)c2nc(Cl)ccc12 [Compound 139, N-([2-Chloro-8-{4-(trifluoromethyl)phenoxy}quinolin-5-yl]methyl)acrylamide]
< 3000 nM	< 1000 nM	< 100 nM	–	C=CC(=O)N[C@@H]1CC[C@H](Oc2ccc(C(F)(F)F)cc2)c2ncc(Cl)cc21 (relative stereo) [Compound 190, N-((5R*,8S*)-3-Chloro-8-(4-(trifluoromethyl)phenoxy)-5,6,7,8-tetrahydroquinolin-5-yl)acrylamide]
–	< 1000 nM	< 100 nM	–	C=CC(=O)NCc1ccc(Oc2ccc(C(F)(F)F)cc2)c2cccnc12 [Compound 216, N-([5-{4-(Trifluoromethyl)phenoxy}quinolin-8-yl]methyl)acrylamide]
–	< 1000 nM	< 100 nM	–	C=CC(=O)NC1COc2c(Oc3ccc(Cl)cc3)ccc(C)c2C1 (centres unmarked) [Compound 41, N-{8-(4-Chlorophenoxy)-5-methylchroman-3-yl}acrylamide]
< 3000 nM	< 1000 nM	< 100 nM	–	C=CC(=O)NC1CCOc2c1ccc(Oc1ccc(C(F)(F)F)cc1)c2F (racemic) [Compound 31, N-[8-Fluoro-7-{4-(trifluoromethyl)phenoxy}chroman-4-yl]acrylamide]
< 3000 nM	< 1000 nM	< 100 nM	–	C=CC(=O)NC1COc2c(Oc3ccc(C(F)(F)F)cc3)cccc2C1=O (racemic) [Compound 40, N-[4-Oxo-8-{4-(tolyloromethyl)phenoxy}chroman-3-yl]acrylamide]
–	< 1000 nM	< 100 nM	–	C=CC(=O)NC1COc2c(cccc2Oc2ccc(C(F)(F)F)nc2)C1 (racemic) [Compound 51, N-(8-[{6-(Trifluoromethyl)pyridin-3-yl}oxy]chroman-3-yl)acrylamide]
–	< 1000 nM	< 100 nM	–	C=CC(=O)NC1CCOc2c1ccc(Oc1ccc(Cl)cc1)c2C (centres unmarked) [Compound 27, N-{7-(4-Chlorophenoxy)-8-methylchroman-4-yl}acrylamide]
–	< 1000 nM	< 100 nM	–	C=CC(=O)N[C@@H]1c2ccc(Oc3ccc(C(F)(F)F)cc3)cc2OC[C@@H]1F (relative stereo) [Compound 21, cis-N-[3-Fluoro-7-{4-(trifluoromethyl)phenoxy}chroman-4-yl]acrylamide]
–	< 1000 nM	< 100 nM	–	C=CC(=O)NCc1ccc(Oc2ccc(C(F)(F)F)nc2)c2cccnc12 [Compound 219, N-{(5-[{6-(Trifluoromethyl)pyridin-3-yl}oxy]quinolin-8-yl)methyl}acrylamide]
–	< 1000 nM	< 100 nM	–	C=CC(=O)N[C@H]1CC[C@@H](Oc2ccc(C(F)(F)F)cc2)c2nc(Cl)ccc21 (relative stereo) [Compound 76, cis-N-[2-Chloro-8-{4-(trifluoromethyl)phenoxy}-5,6,7,8-tetrahydroquinolin-5-yl]acrylamide]
–	< 1000 nM	< 100 nM	–	C=CC(=O)N[C@H]1CC[C@H](Oc2ccc(C(F)(F)F)cc2)c2nc(Cl)ccc21 (relative stereo) [Compound 82, trans-N-[2-Chloro-8-{4-(trifluoromethyl)phenoxy}-5,6,7,8-tetrahydroquinolin-5-yl]acrylamide]
–	< 1000 nM	< 100 nM	–	C=CC(=O)N[C@H]1CC[C@@H](Oc2ccc(Cl)cc2)c2nc(Cl)ccc21 (relative stereo) [Compound 70, cis-N-{2-Chloro-8-(4-chlorophenoxy)-5,6,7,8-tetrahydroquinolin-5-yl}acrylamide]
–	< 1000 nM	< 100 nM	–	C=CC(=O)NC1CCOc2c1ccc(Oc1ccc(Cl)cc1)c2OC (centres unmarked) [Compound 32, N-{7-(4-Chlorophenoxy)-8-methoxychroman-4-yl}acrylamide]
–	< 1000 nM	–	100 to 1000 nM	C=CC(=O)Nc1cncc(Oc2ccc(C(F)(F)F)c(F)c2)c1 [Compound 106, N-[5-{3-Fluoro-4-(trifluoromethyl)phenoxy}pyridin-3-yl]acrylamide]

SMILES	GI50 [1]	GI50 [2]	GI50 ([3]; group less than 100 nmol/L)	GI50 [3, 4]
C=CC(=O)NC1COc2c(cccc2Oc2cnc(C(F)(F)F)cn2)C1 (centres unmarked) [Compound 157, N-(8-[{5-(Trifluoromethyl)pyrazin-2-yl}oxy]chroman-3-yl)acrylamide]	–	< 1000 nM	< 100 nM	–
